Experimental data from patent US20190031717A1, “MULTI-FUNCTIONAL FUSION POLYPEPTIDE, PREPARATION METHOD THEREOF, AND APPLICATION OF SAME” (NANJING ANJI BIOLOGICAL TECHNOLOGY CO., LTD, priority 2016, published 2019).

Columns and labels:
[1] = system: pneumonia fungi; assay: Mouse pneumonia model, fungal; type: in vivo, BALB/C mice; set-up: concentration or dose not given beside the values; conditions: mean ± SD
Experimental: (§1) The mouse pneumonia model was successfully established by the nose-drop method. To build the mouse pneumonia model, BALB/C mice with a body mass of 16-22 g were selected and anesthetized pneumonia chain was prepared after anesthesia with ether on day 0, day 1, and day 2. Staphylococcal fluid, adenovirus concentrate, Mycoplasma pneumoniae, Chlamydia pneumoniae, protozoa, and pneumonia fungi were slowly dripped into the nasal cavity of the mice, so that they enter the tracheobronchial. During the operation process, care was exercised to prevent bacterial fluid from flowing into the esophagus, which leads to inactivation the bacterial fluid. After successful model establishment, the polypeptides of the present invention were administered, and the results were shown in Table 5. […] The results were expressed in average value±standard deviation.

[2] = system: adenovirus concentrate; assay: Mouse pneumonia model, viral; type: in vivo, BALB/C mice; conditions: mean ± SD
Experimental: as §1

[3] = system: Mycoplasma pneumoniae; assay: Mouse pneumonia model, mycoplasma; type: in vivo, BALB/C mice; set-up: concentration or dose not given beside the values; conditions: mean ± SD
Experimental: as §1

[4] = system: Pneumonia caused by lung infection; assay: Mouse pneumonia model, pneumonia caused by lung infection; type: in vivo, BALB/C mice; set-up: concentration or dose not given beside the values; conditions: mean ± SD
Experimental: as §1

[5] = system: Uterine cancer; assay: MTT assay, tumor cells; type: cell-based, human; set-up: concentration or dose not given beside the values; conditions: 48 hours, mean ± SD
Experimental: (§2) A variety of human tumor cells were cultured in a 37° C., 5% (volume fraction) CO2 incubator to a density of 90% or more, collected by trypsinization, resuspended in a culture medium and counted under a microscope, and the cells were harvested. The concentration was adjusted to 2.0×10^4 cells/mL, the cell suspension was inoculated into a 96-well plate at 100 μL per well and cultured overnight at 37° C. in a 5% (volume fraction) CO2 incubator. After the cells were completely adhered, the polypeptides of the present invention were added as drug-administered groups, and a culture solution containing no drug was used as a blank control group, and the culture solution was diluted to each predetermined concentration. Each dilution was separately added to a 96-well plate at 100 μL per well and incubated for 48 hours at 37° C. in a 5% (volume fraction) CO2 incubator. 20 μL of 5 mg/mL MTT was added to each well of a 96-well plate and incubation was continued for 4 h. The medium was aspirated and dissolved in 100 μL of DMSO per well. The absorbance was measured with a microplate reader at a detection wavelength of 570 nm and a reference wavelength of 630 nm, and the growth inhibition rate was calculated as follows: tumor growth inhibition rate (%)=(1−absorbance value of the administered group/unadministered group absorbance value)×100%, and the experiment was repeated 3 times independently. The results obtained from the test were expressed as mean±standard deviation, and the tumor growth inhibition rate of the unadministered group was 0. The results in Table 7 indicate that the polypeptides of the present invention have a significant inhibitory effect on the growth of various tumors (FIG. 6).

[6] = system: Liver cancer; assay: MTT assay, tumor cells; type: cell-based, human; set-up: concentration or dose not given beside the values; conditions: 48 hours, mean ± SD
Experimental: as §2

[7] = system: Thyroid cancer; assay: MTT assay, tumor cells; type: cell-based, human; set-up: concentration or dose not given beside the values; conditions: 48 hours, mean ± SD
Experimental: as §2

[8] = system: Prostate cancer; assay: MTT assay, tumor cells; type: cell-based, human; set-up: concentration or dose not given beside the values; conditions: 48 hours, mean ± SD
Experimental: as §2

[9] = system: Cervical cancer; assay: MTT assay, tumor cells; type: cell-based, human; set-up: concentration or dose not given beside the values; conditions: 48 hours, mean ± SD
Experimental: as §2

[10] = system: Brain tumor; assay: MTT assay, tumor cells; type: cell-based, human; set-up: concentration or dose not given beside the values; conditions: 48 hours, mean ± SD
Experimental: as §2

[11] = system: sarcoma; assay: MTT assay, tumor cells; type: cell-based, human; set-up: concentration or dose not given beside the values; conditions: 48 hours, mean ± SD
Experimental: as §2

[12] = system: Breast cancer; assay: MTT assay, tumor cells; type: cell-based, human; set-up: concentration or dose not given beside the values; conditions: 48 hours, mean ± SD
Experimental: as §2

[13] = system: Hemangioma; assay: MTT assay, tumor cells; type: cell-based, human; set-up: concentration or dose not given beside the values; conditions: 48 hours, mean ± SD
Experimental: as §2

[14] = system: Gastric cancer; assay: MTT assay, tumor cells; type: cell-based, human; set-up: concentration or dose not given beside the values; conditions: 48 hours, mean ± SD
Experimental: as §2

[15] = system: Ovarian cancer; assay: MTT assay, tumor cells; type: cell-based, human; set-up: concentration or dose not given beside the values; conditions: 48 hours, mean ± SD
Experimental: as §2

[16] = system: Colorectal cancer; assay: MTT assay, tumor cells; type: cell-based, human; set-up: concentration or dose not given beside the values; conditions: 48 hours, mean ± SD
Experimental: as §2

[17] = system: Bladder Cancer; assay: MTT assay, tumor cells; type: cell-based, human; set-up: concentration or dose not given beside the values; conditions: 48 hours, mean ± SD
Experimental: as §2

[18] = system: Pancreatic cancer; assay: MTT assay, tumor cells; type: cell-based, human; set-up: concentration or dose not given beside the values; conditions: 48 hours, mean ± SD
Experimental: as §2

[19] = system: Head and neck cancer; assay: MTT assay, tumor cells; type: cell-based, human; set-up: concentration or dose not given beside the values; conditions: 48 hours, mean ± SD
Experimental: as §2

[20] = system: Esophageal cancer; assay: MTT assay, tumor cells; type: cell-based, human; set-up: concentration or dose not given beside the values; conditions: 48 hours, mean ± SD
Experimental: as §2

[21] = system: Melanoma; assay: MTT assay, tumor cells; type: cell-based, human; set-up: concentration or dose not given beside the values; conditions: 48 hours, mean ± SD
Experimental: as §2

[22] = system: Kidney cancer; assay: MTT assay, tumor cells; type: cell-based, human; set-up: concentration or dose not given beside the values; conditions: 48 hours, mean ± SD
Experimental: as §2

| Substance | Inhibitory Effects on Various Pulmonary Infections [1] | Inhibitory Effects on Various Pulmonary Infections [2] | Inhibitory Effects on Various Pulmonary Infections [3] | Inhibitory Effects on Various Pulmonary Infections [4] | tumor growth inhibition rate, MTT Assay [5] | tumor growth inhibition rate, MTT Assay [6] | tumor growth inhibition rate, MTT Assay [7] | tumor growth inhibition rate, MTT Assay [8] | tumor growth inhibition rate, MTT Assay [9] | tumor growth inhibition rate, MTT Assay [10] | tumor growth inhibition rate, MTT Assay [11] | tumor growth inhibition rate, MTT Assay [12] | tumor growth inhibition rate, MTT Assay [13] | tumor growth inhibition rate, MTT Assay [14] | tumor growth inhibition rate, MTT Assay [15] | tumor growth inhibition rate, MTT Assay [16] | tumor growth inhibition rate, MTT Assay [17] | tumor growth inhibition rate, MTT Assay [18] | tumor growth inhibition rate, MTT Assay [19] | tumor growth inhibition rate, MTT Assay [20] | other results |
| --- | --- | --- | --- | --- | --- | --- | --- | --- | --- | --- | --- | --- | --- | --- | --- | --- | --- | --- | --- | --- | --- |
| Arg-Gly-Asp-Gly-Gly-Gly-Gly-Ile-Val-Arg-Arg-Ala-Asp-Arg-Ala-Ala-Val-Pro-Gly-Gly-Gly-Gly-Pro-(D-Pyr)-(D-Cys)-Bip-Arg-Gly-Glu [Polypeptide IV] | 59.28 ± 19.64% | 59.10 ± 18.42% | 40.35 ± 16.87% | 52.37 ± 21.81% | 78.49 ± 25.33% | 73.42 ± 19.64% | 63.05 ± 16.87% | 81.37 ± 26.10% | 64.58 ± 28.95% | 68.85 ± 18.42% | 66.39 ± 17.76% | 92.16 ± 24.65% | 87.49 ± 27.47% | 65.35 ± 21.81% | 91.45 ± 24.46% | 85.80 ± 22.95% | 52.23 ± 13.97% | 74.13 ± 24.16% | 48.89 ± 13.08% | 66.24 ± 17.72% | tumor growth inhibition rate, MTT Assay [21]: 57.25 ± 15.31%; tumor growth inhibition rate, MTT Assay [22]: 60.35 ± 20.48% |
| Arg-Gly-Asp-Gly-Gly-Gly-Gly-Pro-(D-Pyr)-(D-Cys)-Bip-Arg-Gly-Glu-Gly-Gly-Gly-Gly-Ile-Val-Arg-Arg-Ala-Asp-Arg-Ala-Ala-Val-Pro [Polypeptide III] | 62.35 ± 17.56% | 62.17 ± 17.51% | 42.44 ± 11.96% | 55.08 ± 15.52% | 70.93 ± 23.38% | 82.66 ± 18.13% | 70.99 ± 15.57% | 73.54 ± 24.09% | 68.52 ± 26.72% | 77.52 ± 17.00% | 74.75 ± 16.39% | 90.11 ± 22.76% | 85.21 ± 25.36% | 73.58 ± 20.14% | 75.87 ± 22.58% | 96.60 ± 21.18% | 58.81 ± 12.90% | 66.99 ± 22.30% | 55.05 ± 12.07% | 74.58 ± 16.36% | tumor growth inhibition rate, MTT Assay [21]: 64.46 ± 14.14%; tumor growth inhibition rate, MTT Assay [22]: 67.94 ± 18.90% |
| Ile-Val-Arg-Arg-Ala-Asp-Arg-Ala-Ala-Val-Pro-Gly-Gly-Gly-Gly-Arg-Gly-Asp-Gly-Gly-Gly-Gly-Pro-(D-Pyr)-(D-Cys)-Bip-Arg-Gly-Glu [Polypeptide V] | 50.50 ± 16.77% | 50.35 ± 15.73% | 34.37 ± 14.40% | 44.61 ± 18.63% | 66.86 ± 21.63% | 62.54 ± 16.77% | 53.71 ± 14.40% | 69.32 ± 22.29% | 64.58 ± 24.72% | 58.65 ± 15.73% | 56.55 ± 15.16% | 78.51 ± 21.05% | 87.49 ± 23.46% | 55.67 ± 18.63% | 77.90 ± 20.89% | 73.08 ± 19.60% | 44.49 ± 11.93% | 63.15 ± 20.63% | 41.65 ± 11.17% | 56.43 ± 15.13% | tumor growth inhibition rate, MTT Assay [21]: 48.77 ± 13.08%; tumor growth inhibition rate, MTT Assay [22]: 51.41 ± 17.48% |
| Ile-Val-Arg-Arg-Ala-Asp-Arg-Ala-Ala-Val-Pro-Gly-Gly-Gly-Gly-Pro-(D-Pyr)-(D-Cys)-Bip-Arg-Gly-Glu-Gly-Gly-Gly-Gly-Arg-Gly-Asp [Polypeptide II] | 57.52 ± 16.39% | 57.35 ± 16.34% | 39.16 ± 11.16% | 50.81 ± 14.48% | 64.54 ± 21.82% | 71.24 ± 16.92% | 61.18 ± 14.53% | 78.96 ± 22.49% | 62.34 ± 24.94% | 66.81 ± 15.87% | 64.42 ± 15.30% | 89.43 ± 21.24% | 84.45 ± 23.67% | 63.41 ± 18.79% | 88.74 ± 21.07% | 83.25 ± 19.77% | 50.68 ± 12.04% | 71.93 ± 20.82% | 47.44 ± 11.27% | 64.28 ± 15.27% | tumor growth inhibition rate, MTT Assay [21]: 55.55 ± 13.19%; tumor growth inhibition rate, MTT Assay [22]: 58.56 ± 17.64% |
| Pro-(D-Pyr)-(D-Cys)-Bip-Arg-Gly-Glu-Gly-Gly-Gly-Gly-Arg-Gly-Asp-Gly-Gly-Gly-Gly-Ile-Val-Arg-Arg-Ala-Asp-Arg-Ala-Ala-Val-Pro [Polypeptide VI] | 52.69 ± 14.80% | 52.54 ± 13.88% | 35.87 ± 12.71% | 46.55 ± 16.44% | 69.77 ± 19.09% | 65.26 ± 14.80% | 56.04 ± 12.71% | 72.33 ± 19.68% | 67.39 ± 21.82% | 61.20 ± 13.88% | 59.01 ± 13.39% | 81.92 ± 18.58% | 91.30 ± 20.71% | 58.09 ± 16.44% | 81.29 ± 18.44% | 76.26 ± 17.30% | 46.43 ± 10.53% | 65.89 ± 18.21% | 43.46 ± 9.86% | 58.88 ± 13.36% | tumor growth inhibition rate, MTT Assay [21]: 50.89 ± 11.54%; tumor growth inhibition rate, MTT Assay [22]: 53.64 ± 15.44% |
